Assay results taken from BindingDB's records for doi:10.1021/jm030092d (Research Triangle Institute, 2003).
pKi: −log10 of the molar value.

Test: Inhibition of binding of [3H]DADLE to Opioid receptor delta 1 in guinea pig membranes

| Compound | pKi |
| --- | --- |
| C[C@H]1CN(CC[C@H](O)C2CCCCC2)CC[C@@]1(C)c1cccc(O)c1 [3-[1-(3-Cyclohexyl-3-hydroxy-propyl)-3,4-dimethyl-piperidin-4-yl]-phenol] | 6.70 |
| C[C@H]1CN(C/C=C/c2ccccc2)CC[C@@]1(C)c1cccc(O)c1 [3-[(3R,4R)-3,4-Dimethyl-1-((E)-3-phenyl-allyl)-piperidin-4-yl]-phenol] | 6.49 |
| C[C@H]1CN(C/C=C/c2ccccc2Cl)CC[C@@]1(C)c1cccc(O)c1 [3-{(3R,4R)-1-[(E)-3-(2-Chloro-phenyl)-allyl]-3,4-dimethyl-piperidin-4-yl}-phenol] | 6.77 |
| Cc1ccccc1/C=C/CN1CC[C@@](C)(c2cccc(O)c2)[C@@H](C)C1 [RTI-5989-25] | 6.85 |
